Measurements from ChEMBL document CHEMBL1152309, “Isolation of 2-pyridone alkaloids from a New Zealand marine-derived penicillium species” (J Nat Prod, 2009).
Converted amounts (≈) assume the structure as drawn.

How the values were obtained:
Candida albicans = assay: Antifungal activity against Candida albicans at 30 ug/disk by disc-diffusion assay; format: functional; settings: read-out: IZ
Bacillus subtilis = assay: Antibacterial activity against Bacillus subtilis at 30 ug/disk by disc-diffusion assay; format: functional; settings: read-out: IZ
P388 = assay: Cytotoxicity against mouse P388 cells; format: functional, cell-based

Compound	zone of inhibition at 30 µg/disc (Candida albicans) [mm]	zone of inhibition at 30 µg/disc (Bacillus subtilis) [mm]	IC50 (P388) [µg/mL]
C[C@@H]1C[C@H](C)[C@H]2c3c(ccn(O)c3=O)O[C@H](C)[C@@]2(C)C1	11	8	1.8 (≈ 6.49 µM)
C[C@@H]1C[C@H](C)[C@H]2c3c(cc[nH]c3=O)O[C@H](C)[C@@]2(C)C1			> 12.5
C[C@@H]1C[C@H](C)[C@@H](c2c(O)cc[nH]c2=O)[C@H](C)[C@@](C)(O)C1 [DEOXYAKANTHOMYCIN]			> 12.5
